Experimental findings from US20250282799A1, “SUBSTITUTED PYRIDO[4,3-d]PYRIMIDINES AS KRAS MODULATORS” (Alterome Therapeutics, Inc., priority 2023, published 2025) are described below.

Each structure is given as a SMILES string.

The subject of this experiment is KRAS G12V dependent lung adenocarcinoma cell line, NCI-H441. The experiment can be described thus: Cellular pERK (Thr202/Tyr204) FRET/HTRF assay. The class given is cell-based. The note with it: Homo sapiens, NCI-H441, pERK HTRF, NCI-H441 cells (KRAS G12V). An outline of the steps:
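NCI-H441 cells (KRAS G12V) were seeded and grown overnight at 37 °C, 5% CO2, then treated with compound in DMSO for 1 hr. Lysates were probed with a Eu3+-cryptate/d2 antibody sandwich against pERK1/2 Thr202/Tyr204 and read by HTRF at 665 nm; IC50 from curve fitting.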
In general terms: In TR-FRET formats the signal depends on donor and acceptor labels being close together.
As usually defined, the IC50 is the midpoint of a concentration-inhibition curve. A high value points to a need for much substance. In turn, `[2H]C([2H])(Oc1nc(N2CCOC[C@@H]3[C@@H](F)[C@@H]32)c2cnc(-c3cccc4ccc(F)c(C#C)c34)c(F)c2n1)[C@@]12CCCN1C[C@H](F)C2` [Example 46, (1R,7R,8R)-2-(7-(8-ethynyl-7-fluoronaphthalen-1-yl)-8-fluoro-2-(((2R,7aS)-2-fluorotetrahydro-1H-pyrrolizin-7a(5H)-yl)methoxy-d2)pyrido[4,3-d]pyrimidin-4-yl)-8-fluoro-5-oxa-2-azabicyclo[5.1.0]octane] yielded a half-maximal inhibitory concentration (IC50) of 500 to 10000 nM.

The molecule `[2H]C([2H])(Oc1nc(N2CCOC[C@@H]3C[C@@H]32)c2cnc(-c3ccc(F)c4sc(N)c(C#N)c34)c(F)c2n1)[C@@]12CCCN1C[C@H](F)C2` [Example 47, 4-(4-((1S,7R)-5-Oxa-2-azabicyclo[5.1.0]octan-2-yl)-8-fluoro-2-(((2R,7aS)-2-fluorotetrahydro-1H-pyrrolizin-7a(5H)-yl)methoxy-d2)pyrido[4,3-d]pyrimidin-7-yl)-2-amino-7-fluorobenzo[b]thiophene-3-carbonitrile] returned an IC50 of 500 to 10000 nM.

Consider `[2H]C([2H])(Oc1nc(N2CCOC[C@H]3C[C@H]32)c2cnc(-c3ccc(F)c4sc(N)c(C#N)c34)c(F)c2n1)[C@@]12CCCN1C[C@H](F)C2` [Example 48, 4-(4-((1R,7S)-5-Oxa-2-azabicyclo[5.1.0]octan-2-yl)-8-fluoro-2-(((2R,7aS)-2-fluorotetrahydro-1H-pyrrolizin-7a(5H)-yl)methoxy-d2)pyrido[4,3-d]pyrimidin-7-yl)-2-amino-7-fluorobenzo[b]thiophene-3-carbonitrile], for which the concentration for half-maximal inhibition (IC50) was 50 to 500 nM.

`[2H]C([2H])([2H])Oc1c(C#N)ccc2cc(N)cc(-c3ncc4c(N5CCCC[C@H]6[C@H](F)[C@H]65)nc(OC([2H])([2H])[C@@]56CCCN5C[C@H](F)C6)nc4c3F)c12` [Example 49, 6-Amino-8-(8-fluoro-4-((1S,7R,8S)-8-fluoro-2-azabicyclo[5.1.0]octan-2-yl)-2-(((2R,7aS)-2-fluorotetrahydro-1H-pyrrolizin-7a(5H)-yl)methoxy-d2)pyrido[4,3-d]pyrimidin-7-yl)-1-(methoxy-d3)-2-naphthonitrile]: the IC50 is under 50 nM.

For the molecule `[2H]C([2H])([2H])Oc1c(C#N)c(F)cc2cc(N)cc(-c3ncc4c(N5CCCC[C@H]6[C@H](F)[C@H]65)nc(OC([2H])([2H])[C@@]56CCCN5C[C@H](F)C6)nc4c3F)c12` [Example 50, 6-Amino-3-fluoro-8-(8-fluoro-4-((1S,7R,8S)-8-fluoro-2-azabicyclo[5.1.0]octan-2-yl)-2-(((2R,7aS)-2-fluorotetrahydro-1H-pyrrolizin-7a(5H)-yl)methoxy-d2)pyrido[4,3-d]pyrimidin-7-yl)-1-(methoxy-d3)-2-naphthonitrile], the IC50 was under 50 nM.

In turn, `[2H]C([2H])(Oc1nc(N2CCC[C@@H]3C[C@@H]32)c2cnc(-c3cc(N)cc4cc(F)c(F)c(C#C)c34)c(F)c2n1)[C@@]12CCCN1C[C@H](F)C2` [Example 51, 4-(4-((1S,6R)-2-Azabicyclo[4.1.0]heptan-2-yl)-8-fluoro-2-(((2R,7aS)-2-fluorotetrahydro-1H-pyrrolizin-7a(5H)-yl)methoxy-d2)pyrido[4,3-d]pyrimidin-7-yl)-5-ethynyl-6,7-difluoronaphthalen-2-amine] registered an IC50 of 500 to 10000 nM.

The molecule `[2H]C([2H])(Oc1nc(N2CCC[C@H]3C[C@H]32)c2cnc(-c3cc(N)cc4cc(F)c(F)c(C#C)c34)c(F)c2n1)[C@@]12CCCN1C[C@H](F)C2` [Example 52, 4-(4-((1R,6S)-2-azabicyclo[4.1.0]heptan-2-yl)-8-fluoro-2-(((2R,7aS)-2-fluorotetrahydro-1H-pyrrolizin-7a(5H)-yl)methoxy-d2)pyrido[4,3-d]pyrimidin-7-yl)-5-ethynyl-6,7-difluoronaphthalen-2-amine] came in with an IC50 of 50 to 500 nM.
